According to patent US9499550B2 (BRISTOL-MYERS SQUIBB COMPANY, priority 2012, dated 2016):
pEC50: −log10 of the molar value. Read-outs that look alike come from different tables or passages of the source.

Columns and labels:
[1] = system: HCV genotype 1a (H77 strain) replicon in HUH-7 cells; assay: HCV replicon luciferase reporter assay, genotype 1a; type: cell-based; conditions: Hepatitis C virus, Huh-7, 72 h, 3 days incubation, read-out: LE_1a (EC50, range)
Outline: (§1)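 Replicon inhibition for both genotypes was measured as Renilla luciferase signal (EnduRen, 7.5 μM final, 2 h) after 3-day, 37° C exposure of replicon-bearing HUH-7 cells in 4% FCS DMEM, 0.5% DMSO. The 1b construct carries S1179I; the 1a H77 construct carries P1496L and S2204I. Twenty-point, 3-fold dilutions were fitted four-parametrically for EC50, and CC50 was taken from multiplexed Cell Titer-Blue.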

[2] = system: HCV genotype 1b (Con1) replicon in HUH-7 cells; assay: HCV replicon luciferase reporter assay, genotype 1b; type: cell-based; conditions: Hepatitis C virus, Huh-7, 72 h, 3 days incubation, read-out: LE_1b (EC50, range)
Outline: as §1

[3] = HCV genotype 1a replicon luciferase
[4] = HCV genotype 1b replicon luciferase
[5] = GETYPE1A, HCV genotype 1a replicon luciferase
[6] = GETYPE1B, HCV genotype 1b replicon luciferase
[7] = HCV genotype 1a replicon luciferase assay, range class
[8] = HCV genotype 1b replicon luciferase assay, range class

Row | Compound | pEC50 [1, 3] | pEC50 [2, 4] | also measured
1 | COc1ccc2c(O[C@@H]3C[C@H]4C(=O)N[C@]5(C(=O)NS(=O)(=O)C6(C)CC6)C[C@H]5/C=C\CC[C@@H](C)C[C@@H](C)[C@H](NC(=O)OC(C)(C)C)C(=O)N4C3)ncc(N3C[C@@H](C)O[C@@H](C)C3)c2c1 [Compound 4131, tert-butyl (2R,6S,7R,9R,13aS,14aR,16aS,Z)-2-(4-((2S,6R)-2,6-dimethylmorpholino)-6-methoxyisoquinolin-1-yloxy)-7,9-dimethyl-14a-(1-methylcyclopropylsulfonylcarbamoyl)-5,16-dioxo-1,2,3,5,6,7,8,9,10,11,13a,14,14a,15,16,16a-hexadecahydrocyclopropa[e]pyrrolo[1,2-a][1,4]diazacyclopentadecin-6-ylcarbamate] | > 8.26 | > 8.26 | 
2 | COc1ccc2nc(C(C)C)c(O[C@@H]3C[C@H]4C(=O)N[C@]5(C(=O)NS(=O)(=O)C6CC6)C[C@H]5/C=C\CC[C@@H](C)C[C@@H](C)[C@H](NC(=O)OC(C)(C)C)C(=O)N4C3)nc2c1 [Compound 4316, tert-butyl ((2R,6S,7R,9R,13aS,14aR,16aS,Z)-14a-((cyclopropylsulfonyl)carbamoyl)-2-((3-isopropyl-7-methoxyquinoxalin-2-yl)oxy)-7,9-dimethyl-5,16-dioxo-1,2,3,5,6,7,8,9,10,11,13a,14,14a,15,16,16a-hexadecahydrocyclopropa[e]pyrrolo[1,2-a][1,4]diazacyclopentadecin-6-yl)carbamate] | 8.30 to 9.00 | 8.30 to 9.00 | 
3 | CC[C@@H]1C[C@H](C)CC/C=C\[C@@H]2C[C@@]2(C(=O)NS(=O)(=O)C2CC2)NC(=O)[C@@H]2C[C@@H](Oc3cc(OC)nc4cc(OC)ccc34)CN2C(=O)[C@H]1NC(=O)OC(C)(C)C(C)(F)F [Compound 1212] |  |  | pEC50 [1, 5]: 8.30 to 9.00; pEC50 [2, 6]: 9.30 to 10.00
4 | COc1ccc2c(O[C@@H]3C[C@H]4C(=O)N[C@]5(C(=O)NS(=O)(=O)C6CC6)C[C@H]5/C=C\CC[C@@H](C)C[C@@H](C)[C@H](NC(=O)OC(C)(C)C)C(=O)N4C3)nc(-c3ccc(OC(C)C)c(F)c3)cc2c1 [Compound 3060, tert-butyl ((2R,6S,7R,9R,13aS,14aR,16aS,Z)-14a-((cyclopropylsulfonyl)carbamoyl)-2-((3-(3-fluoro-4-isopropoxyphenyl)-6-methoxyisoquinolin-1-yl)oxy)-7,9-dimethyl-5,16-dioxo-1,2,3,5,6,7,8,9,10,11,13a,14,14a,15,16,16a-hexadecahydrocyclopropa[e]pyrrolo[1,2-a][1,4]diazacyclopentadecin-6-yl)carbamate] |  |  | pEC50 [1, 7]: > 8.26; pEC50 [2, 8]: > 8.26
5 | C[C@@H]1CC/C=C\[C@@H]2C[C@@]2(C(=O)NS(=O)(=O)C2CC2)NC(=O)[C@@H]2C[C@@H](Oc3ncc(OC(F)F)c4c(Cl)cccc34)CN2C(=O)[C@@H](NC(=O)CC(C)(C)C(F)(F)F)[C@H](C)C1 [Compound 4031] | > 8.26 | > 8.26 | 
6 | CCCOc1cc2c(Cl)cccc2c(O[C@@H]2C[C@H]3C(=O)N[C@]4(C(=O)NS(=O)(=O)C5CC5)C[C@H]4/C=C\CC[C@@H](C)C[C@@H](C)[C@H](NC(=O)O[C@H](C)C(F)(F)F)C(=O)N3C2)n1 [Compound 1082, (R)-1,1,1-trifluoropropan-2-yl ((2R,6S,7R,9R,13aS,14aR,16aS,Z)-2-((5-chloro-3-propoxyisoquinolin-1-yl)oxy)-14a-((cyclopropylsulfonyl)carbamoyl)-7,9-dimethyl-5,16-dioxo-1,2,3,5,6,7,8,9,10,11,13a,14,14a,15,16,16a-hexadecahydrocyclopropa[e]pyrrolo[1,2-a][1,4]diazacyclopentadecin-6-yl)carbamate] |  |  | pEC50 [1, 7]: > 8.26; pEC50 [2, 8]: > 8.26
7 | [2H]C([2H])([2H])C(OC(=O)N[C@@H]1C(=O)N2C[C@H](Oc3nnc(OCC)c4ccccc34)C[C@H]2C(=O)N[C@]2(C(=O)NS(=O)(=O)C3CC3)C[C@H]2/C=C\CC[C@@H](C)C[C@H]1C)(C([2H])([2H])[2H])C(F)(F)F [Compound 5039] | > 8.26 | > 8.26 | 
8 | CC[C@@H]1C[C@H](C)CC/C=C\[C@@H]2C[C@@]2(C(=O)NS(=O)(=O)C2CC2)NC(=O)[C@@H]2C[C@@H](Oc3nc4cc(OC)ccc4nc3C(C)C)CN2C(=O)[C@H]1NC(=O)OC(C)(C)C(F)(F)F [Compound 4273] |  |  | pEC50 [1, 5]: 7.46 to 8.30; pEC50 [2, 6]: 8.30 to 9.00
9 | CC[C@@H]1C[C@H](C)CC/C=C\[C@@H]2C[C@@]2(C(=O)NS(=O)(=O)C2CC2)NC(=O)[C@@H]2C[C@@H](Oc3nc4ccc(OC)cc4nc3N(C)C)CN2C(=O)[C@H]1NC(=O)OC(C)(C)C [Compound 4304, tert-butyl ((2R,6S,7R,9R,13aS,14aR,16aS,Z)-14a-((cyclopropylsulfonyl)carbamoyl)-2-((3-(dimethylamino)-6-methoxyquinoxalin-2-yl)oxy)-7-ethyl-9-methyl-5,16-dioxo-1,2,3,5,6,7,8,9,10,11,13a,14,14a,15,16,16a-hexadecahydrocyclopropa[e]pyrrolo[1,2-a][1,4]diazacyclopentadecin-6-yl)carbamate] | 6.21 to 7.46 | 7.46 to 8.30 | 
10 | C[C@@H]1CC/C=C\[C@@H]2C[C@@]2(C(=O)NS(=O)(=O)C2(C)CC2)NC(=O)[C@@H]2C[C@@H](Oc3nc4c(c5ccccc35)OCCC4)CN2C(=O)[C@@H](NC(=O)OC(C)(C)C(C)(F)F)[C@H](C)C1 [Compound 6034, 3,3-difluoro-2-methylbutan-2-yl((2R,6S,7R,9R,13aS,14aR,16aS,Z)-2-((3,4-dihydro-2H-pyrano[3,2-c]isoquinolin-6-yl)oxy)-7,9-dimethyl-14a-(((1-methylcyclopropyl)sulfonyl)carbamoyl)-5,16-dioxo-1,2,3,5,6,7,8,9,10,11,13a,14,14a,15,16,16a-hexadecahydrocyclopropa[e]pyrrolo[1,2-a][1,4]diazacyclopentadecin-6-yl)carbamate] | > 8.26 | > 8.26 | 
11 | COCCOc1cnc(O[C@@H]2C[C@H]3C(=O)N[C@]4(C(=O)NS(=O)(=O)C5(C)CC5)C[C@H]4/C=C\CC[C@H](C)C[C@@H](C)[C@H](NC(=O)OC(C)(C)C(F)(F)F)C(=O)N3C2)c2ccccc12 [Compound 1037, 1,1,1-trifluoro-2-methylpropan-2-yl((2R,6S,7R,9S,13aS,14aR,16aS,Z)-2-((4-(2-methoxyethoxyl)isoquinolin-1-yl)oxy)-7,9-dimethyl-14a-(((1-methylcyclopropyl)sulfonyl)carbamoyl)-5,16-dioxo-1,2,3,5,6,7,8,9,10,11,13a,14,14a,15,16,16a-hexadecahydrocyclopropa[e]pyrrolo[1,2-a][1,4]diazacyclopentadecin-6-yl)carbamate] |  |  | pEC50 [1, 7]: 6.99 to 8.32; pEC50 [2, 8]: 6.99 to 8.32
12 | COc1ccc2c(O[C@@H]3C[C@H]4C(=O)N[C@]5(C(=O)NS(=O)(=O)C6(C)CC6)C[C@H]5/C=C\CC[C@@H](C)C[C@@H](C)[C@H](NC(=O)OC(C)(C)C)C(=O)N4C3)cc(-c3ccc(OC(C)C)cc3)nc2c1 [Compound 4242, tert-butyl ((2R,6S,7R,9R,13aS,14aR,16aS,Z)-2-((2-(4-isopropoxyphenyl)-7-methoxyquinolin-4-yl)oxy)-7,9-dimethyl-14a-(((1-methylcyclopropyl)sulfonyl)carbamoyl)-5,16-dioxo-1,2,3,5,6,7,8,9,10,11,13a,14,14a,15,16,16a-hexadecahydrocyclopropa[e]pyrrolo[1,2-a][1,4]diazacyclopentadecin-6-yl)carbamate] | 9.00 to 9.29 | 9.00 to 9.29 | 
13 | COc1ccc2c(O[C@@H]3C[C@H]4C(=O)N[C@]5(C(=O)NS(=O)(=O)C6(CF)CC6)C[C@H]5/C=C\CC[C@@H](C)C[C@@H](C)[C@H](NC(=O)OC(C)(C)C(C)(F)F)C(=O)N4C3)ncc(C(F)(F)F)c2c1 [Compound 1167, 3,3-difluoro-2-methylbutan-2-yl((2R,6S,7R,9R,13aS,14aR,16aS,Z)-14a-(((1-(fluoromethyl)cyclopropyl)sulfonyl)carbamoyl)-2-((6-methoxy-4-(trifluoromethyl)isoquinolin-1-yl)oxy)-7,9-dimethyl-5,16-dioxo-1,2,3,5,6,7,8,9,10,11,13a,14,14a,15,16,16a-hexadecahydrocyclopropa[e]pyrrolo[1,2-a][1,4]diazacyclopentadecin-6-yl)carbamate] |  |  | pEC50 [1, 7]: > 8.26; pEC50 [2, 8]: > 8.26
14 | COc1cnc(O[C@@H]2C[C@H]3C(=O)N[C@]4(C(=O)NS(=O)(=O)C5(CF)CC5)C[C@H]4/C=C\CC[C@@H](C)C[C@@H](C)[C@H](NC(=O)OC(C)(C)C(F)(F)F)C(=O)N3C2)c2ccccc12 [Compound 4155] |  |  | pEC50 [1, 5]: > 8.26; pEC50 [2, 6]: > 8.26
15 | CCOc1cc2ccccc2c(O[C@@H]2C[C@H]3C(=O)N[C@]4(C(=O)NS(=O)(=O)C5(C)CC5)C[C@H]4/C=C\CC[C@H](C)C[C@@H](C)[C@H](NC(=O)OC(C)(C)C(F)(F)F)C(=O)N3C2)n1 [Compound 6099, 1,1,1-trifluoro-2-methylpropan-2-yl((2R,6S,7R,9S,13aS,14aR,16aS,Z)-2-((3-ethoxyisoquinolin-1-yl)oxy)-7,9-dimethyl-14a-(((1-methylcyclopropyl)sulfonyl)carbamoyl)-5,16-dioxo-1,2,3,5,6,7,8,9,10,11,13a,14,14a,15,16,16a-hexadecahydrocyclopropa[e]pyrrolo[1,2-a][1,4]diazacyclopentadecin-6-yl)carbamate] | 8.30 to 9.00 | 8.30 to 9.00 | 
16 | COc1ccc2nc(C(C)C)c(O[C@@H]3C[C@H]4C(=O)N[C@]5(C(=O)NS(=O)(=O)C6(C)CC6)C[C@H]5/C=C\CC[C@@H](C)C[C@@H](C)[C@H](NC(=O)OC(C)(C)C(F)(F)F)C(=O)N4C3)nc2c1 [Compound 4259] |  |  | pEC50 [1, 5]: 8.30 to 9.00; pEC50 [2, 6]: 9.00 to 9.29
